Data reported in publication PMC8637020, “Drug Repositioning For Allosteric Modulation of VIP and PACAP Receptors” (Frontiers in Endocrinology, 2021).

How the values were obtained:
VPAC2 = target: T1, VPAC2 (Homo sapiens, UniProt P41587); assay: FAM-VIP competition binding by FACS ([…] VIP binding left at […]) and aequorin calcium mobilization in CHO cells expressing VPAC2; IC50 extrapolated from the partial calcium inhibition; format: cell-based
T1 construct: gene VIPR2
T1 sequence (P41587 24-438): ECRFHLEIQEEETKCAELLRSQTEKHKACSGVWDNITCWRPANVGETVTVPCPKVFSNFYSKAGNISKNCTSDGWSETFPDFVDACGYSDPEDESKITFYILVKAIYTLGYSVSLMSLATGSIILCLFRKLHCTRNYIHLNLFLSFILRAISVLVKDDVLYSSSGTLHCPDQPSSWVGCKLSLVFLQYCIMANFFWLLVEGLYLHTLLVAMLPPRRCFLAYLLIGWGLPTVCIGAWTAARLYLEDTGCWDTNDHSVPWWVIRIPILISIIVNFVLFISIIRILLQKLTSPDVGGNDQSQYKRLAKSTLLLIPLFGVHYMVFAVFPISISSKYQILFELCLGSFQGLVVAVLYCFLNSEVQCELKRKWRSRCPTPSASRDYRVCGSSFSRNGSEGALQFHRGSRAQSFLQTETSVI

VPAC1 = target: T2, VPAC1 (Homo sapiens, UniProt P32241); assay: FAM-VIP competition binding by FACS ([…] VIP binding left at […]) and aequorin calcium mobilization in CHO cells expressing VPAC1; IC50 extrapolated from the partial calcium inhibition; format: cell-based
T2 construct: gene VIPR1
T2 sequence (P32241 31-457): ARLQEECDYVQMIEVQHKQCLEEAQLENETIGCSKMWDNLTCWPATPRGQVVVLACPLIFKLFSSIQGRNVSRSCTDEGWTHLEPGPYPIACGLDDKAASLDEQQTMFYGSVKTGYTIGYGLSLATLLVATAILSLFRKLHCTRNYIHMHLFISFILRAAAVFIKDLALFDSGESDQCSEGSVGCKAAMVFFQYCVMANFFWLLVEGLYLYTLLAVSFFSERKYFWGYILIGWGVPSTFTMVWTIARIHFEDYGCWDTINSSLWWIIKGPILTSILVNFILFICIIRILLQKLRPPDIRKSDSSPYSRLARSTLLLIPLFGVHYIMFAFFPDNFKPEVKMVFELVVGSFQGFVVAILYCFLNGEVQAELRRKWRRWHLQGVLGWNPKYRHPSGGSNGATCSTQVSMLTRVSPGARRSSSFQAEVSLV

## CCCSc1nc(N[C@@H]2C[C@H]2c2ccc(F)c(F)c2)c2nnn([C@@H]3C[C@H](OCCO)[C@@H](O)[C@H]3O)c2n1 [ticagrelor]
VPAC2
  IC50: ~20 µM
VPAC1
  IC50: ~50 µM
